Assay results reported in patent US20220213092A1, “BICYCLIC PYRAZOLE BRUTON'S TYROSINE KINASE INHIBITORS” (AbbVie Inc., priority 2020, published 2022).

Experiments:
[1] = system: recombinant human CYP1A2, 2B6, 2C8, 2C9, 2C19, 2D6, 3A4, and FMO3; assay: Human recombinant CYP and FMO3 phenotyping; format: in vitro ADME; details: of CYPs tested (1A2, 2B6, 2C8, 2C9, 2D6, 3A4) and FMO3
Method: The involvement of CYPs and FMO3 in the metabolism of Compound 6 was evaluated using recombinant human CYP1A2, 2B6, 2C8, 2C9, 2C19, 2D6, 3A4, and FMO3 (CYPs and FMO3 from Corning Life Sciences). Incubations contained 0.5 μM of Compound 6, 100 pmol/mL of each CYP isoform, or 0.5 mg/mL of FMO3 isoform, and 1 mM NADPH cofactor in 50 mM potassium phosphate buffer at pH 7.4. All incubations were pre-warmed at 37° C. for 10 minutes, followed by addition of cofactor to initiate the reaction. Incubations were carried out for 60 minutes at 37° C. At each time point (0, 5, 10, 20, 30 and 60 minutes), an aliquot of sample in the incubation pleases was taken and dispersed into a quench plate containing 3-fold volume of acetonitrile and carbutamide as an internal standard. The samples were centrifuged, and the supernatant was analyzed using LC-MS/MS.
Quantitation of the substrate depletion in recombinant CYPs and FMO3 phenotyping, chemical inhibition in hepatocytes, and enzyme kinetics assays were analyzed by monitoring substrate depletion using LC-MS/MS.
The intrinsic clearance of Compound 6 in rCYP and hepatocytes was determined by integrating the parent peak on the chromatograms, and the extent of substrate depletion measured by comparing parent peak area loss over time. […]

[2] = target: T1, BMX (Homo sapiens, UniProt P51813); assay: Other kinase MSA: BMX; format: biochemical
T1 sequence (P51813 1-675): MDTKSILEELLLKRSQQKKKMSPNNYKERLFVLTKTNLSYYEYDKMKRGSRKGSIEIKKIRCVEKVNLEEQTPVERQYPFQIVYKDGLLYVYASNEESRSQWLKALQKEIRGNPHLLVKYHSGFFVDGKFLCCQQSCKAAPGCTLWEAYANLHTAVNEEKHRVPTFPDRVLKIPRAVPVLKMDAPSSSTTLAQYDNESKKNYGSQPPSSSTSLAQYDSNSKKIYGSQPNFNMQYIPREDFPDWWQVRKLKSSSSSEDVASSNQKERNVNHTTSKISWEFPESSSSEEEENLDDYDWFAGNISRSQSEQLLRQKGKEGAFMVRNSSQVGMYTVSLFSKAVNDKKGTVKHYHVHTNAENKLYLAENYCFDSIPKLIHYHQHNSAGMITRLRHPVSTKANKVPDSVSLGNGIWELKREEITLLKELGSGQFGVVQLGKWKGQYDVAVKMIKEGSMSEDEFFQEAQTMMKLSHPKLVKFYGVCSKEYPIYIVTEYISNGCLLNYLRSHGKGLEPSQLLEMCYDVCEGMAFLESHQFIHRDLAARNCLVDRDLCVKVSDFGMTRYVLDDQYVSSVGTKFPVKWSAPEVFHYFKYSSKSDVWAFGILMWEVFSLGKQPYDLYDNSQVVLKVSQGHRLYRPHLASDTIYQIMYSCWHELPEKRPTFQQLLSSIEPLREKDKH
Method: (§1) Kinase activity, unless otherwise indicated, was measured in vitro using an electrophoretic mobility shift assay (MSA). The phosphorylation of a peptide substrate by BTK and other kinases was measured. The kinase reactions were assembled in a total volume of 25 μL per well in 384 well plates. The following was added to each well: compound buffer (or control); enzyme buffer; and substrate buffer, as further described below.
(§2) Enzyme and compound/inhibitor were optionally pre-incubated. To each well was added: 8 μL of 2.5×ATP and substrate in 1× Master Buffer (1× Master Buffer as described above). The plate was incubated at room temperature for 3 hours. […] OG488 was Oregon Green dye, which was conjugated to the peptide substrate. […] The kinase activity for the kinases in Table 3 were measured at 3 hours incubation time, except that in the case of MAP2K1 and MAP2K2 assay, pre-activation of ERK was done for 30 min with 6 μM of ATP, and then the detection of activated ERK in the presence of compounds was done after 60 minutes of incubation.
(§3) The terminated reactions were analyzed using a 12 channel LABCHIP® 3000 microfluidic detection instrument (available from Caliper Life Sciences, Waltham, Mass.). […] Change in the relative fluorescence intensity of the substrate and product peaks was the parameter measured, reflecting enzyme activity. […]

[3] = target: ERBB4 (Homo sapiens, UniProt Q15303); assay: biochemical
Method: as §1, §2, §3

ERBB4, sequence (Q15303 26-1308, species assumed): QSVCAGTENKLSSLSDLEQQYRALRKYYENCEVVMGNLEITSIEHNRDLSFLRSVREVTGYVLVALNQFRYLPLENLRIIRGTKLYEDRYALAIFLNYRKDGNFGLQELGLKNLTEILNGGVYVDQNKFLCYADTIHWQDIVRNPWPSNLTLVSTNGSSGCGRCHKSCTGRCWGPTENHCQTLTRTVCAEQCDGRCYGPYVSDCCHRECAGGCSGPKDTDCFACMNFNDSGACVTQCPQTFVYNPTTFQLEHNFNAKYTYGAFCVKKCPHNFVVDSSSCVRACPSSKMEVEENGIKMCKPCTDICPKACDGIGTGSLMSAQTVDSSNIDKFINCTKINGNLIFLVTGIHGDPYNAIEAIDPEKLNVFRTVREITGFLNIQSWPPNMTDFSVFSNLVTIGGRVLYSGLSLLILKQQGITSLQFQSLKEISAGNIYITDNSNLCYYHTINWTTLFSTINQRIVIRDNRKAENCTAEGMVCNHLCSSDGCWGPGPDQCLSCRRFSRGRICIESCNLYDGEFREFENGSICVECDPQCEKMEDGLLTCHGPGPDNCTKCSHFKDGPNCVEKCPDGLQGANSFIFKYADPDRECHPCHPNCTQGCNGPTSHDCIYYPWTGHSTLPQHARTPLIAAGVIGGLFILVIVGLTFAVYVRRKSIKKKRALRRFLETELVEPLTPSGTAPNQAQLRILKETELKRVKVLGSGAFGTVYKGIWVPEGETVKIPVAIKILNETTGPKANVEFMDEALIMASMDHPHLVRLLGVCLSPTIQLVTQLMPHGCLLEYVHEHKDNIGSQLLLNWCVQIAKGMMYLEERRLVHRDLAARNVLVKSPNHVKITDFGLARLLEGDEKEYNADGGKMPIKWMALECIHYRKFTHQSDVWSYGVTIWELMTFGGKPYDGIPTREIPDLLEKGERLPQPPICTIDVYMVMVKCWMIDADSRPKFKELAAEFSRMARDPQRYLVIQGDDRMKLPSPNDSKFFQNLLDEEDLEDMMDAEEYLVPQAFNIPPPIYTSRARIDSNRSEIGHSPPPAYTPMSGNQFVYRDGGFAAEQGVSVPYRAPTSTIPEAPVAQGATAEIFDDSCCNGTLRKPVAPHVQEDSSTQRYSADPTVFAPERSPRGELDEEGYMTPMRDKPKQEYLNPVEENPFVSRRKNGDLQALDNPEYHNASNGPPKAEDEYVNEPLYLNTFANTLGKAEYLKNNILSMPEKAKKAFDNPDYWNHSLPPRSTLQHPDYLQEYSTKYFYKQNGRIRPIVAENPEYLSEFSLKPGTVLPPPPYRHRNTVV

- IC50 [2]: 15.2 nM
- IC50 [3]: 757 nM
SMILES: C=CC(=O)N1CCN([C@@H]2CCNc3c2nn(-c2ccc(Oc4ccccc4)cc2)c3C(N)=O)CC1 [Example 6, (7R)-2-(4-phenoxyphenyl)-7-[4-(prop-2-enoyl)piperazin-1-yl]-4,5,6,7-tetrahydro-2H-pyrazolo[4,3-b]pyridine-3-carboxamide]
- major contributing enzyme in metabolism [1]: CYP3A4 was identified as the major contributing enzyme
